Results taken from patent US8377967B2, “Piperidine derivative” (Nippon Zoki Pharmaceutical Co., Ltd., priority 2008, dated 2013).
Structures can show the parent of a compound that is named as a salt.

Key:
[1] = system: histamine-induced vascular hyperpermeability reaction; experiment: Rat histamine-induced vascular hyperpermeability reaction (in vivo antihistamine action); details: SD male rat, oral administration 1 hour before intracutaneous histamine, leaked Evans Blue pigment
Experimental: An SD male rat (SPF) of 180 g in weight was previously fed for one week or more by allowing the rat to take a solid feed and tap water ad libitum, under the environment setting of a temperature of 22° C., humidity of 55% and an artificial illumination of 12 hours a day (light phase 8 am to 8 pm), and the rat was fasted overnight to be used for the experiment. Histamine•dihydrochloride (hereinafter referred to as histamine) and Evans Blue were used by dissolving each in physiological saline upon use. A substance to be tested was dissolved in water for injection or suspended in 0.5% carboxymethyl cellulose sodium, and the rat was orally administered with the solution or suspension (dose volume: 5 mL/kg body weight). After 1 hour from the administration, the physiological saline and the histamine solution were each intracutaneously injected to two locations (20 μg/0.05 ml/location) each on a back part of the rat of which hair was sheared with an electric clipper while anesthetizing with an ether. A 0.5% Evans Blue-containing physiological saline was injected intravenously to the tail of the rat (1 mL/200 g body weight) immediately before the intracutaneous injection of the histamine.
After 30 minutes, the animal was decapitated, and allowed to bleed lethally, and the skin was removed to measure an amount of leaked pigment in the blue-stained portion. The measurement of the amount of leaked pigment was carried out as follows. Skins of the pigment leaking site were cut out at two locations, 1 mL of a 2 mol/L aqueous potassium hydroxide solution was added thereto in a test tube, and the test tube was allowed to stand overnight at 37° C. to dissolve. Thereafter, 6 mL of a 1:3 mixed solution of 0.67 mol/L phosphoric acid and acetone was added to the solution, and the mixture was vigorously shaken for 10 minutes. Thereafter, the mixture was filtered, and the absorbance of the filtrate at 620 nm was measured. The absorbance obtained from the two locations of the sites injected with physiological saline, as blank value, was used for a compensation. The amount of leaked pigment was calculated from the calibration curve of Evans Blue at 620 nm.

[2] = molecular target: human histamine H1 receptor (Homo sapiens, UniProt P35367); experiment: In vitro human histamine H1 receptor binding experiment ([3H]pyrilamine); details: HEK293A cells stably expressing human histamine H1 receptor, [3H]pyrilamine 3 nmol/L, room temperature 60 minutes
Experimental: Recombinant human histamine H1 receptor plasmid (prepared by Invitrogen) was transfected to HEK293A cells with Lipofectamine 2000 (manufactured by Invitrogen). Cells stably expressing human histamine H1 receptor were screened with Geneticin (manufactured by Invitrogen). The cells were continued to be cultured using a Dulbecco's Modified Eagle Medium containing 10% fetal bovine serum, 0.1 mmol/L MEM Non-Essential Amino Acids Solution, 2 mmol/L L-glutamine and 0.7 mg/mL Geneticin in a 5% CO2 incubator at 37° C. The cells stably expressing human histamine H1 receptor were prepared using 50 mmol/L Tris-HCl (pH 7.5) (hereinafter referred to as buffer) containing 0.1% bovine serum albumin, so as to have a concentration of 3×10^6 cells/mL, to give a cell sample preparation. Fifty microliters of the buffer, 50 μl of a test substance solution at various concentrations, and 50 μL of [^3H]pyrilamine solution (final concentration: 3 nmol/L) were added to each of the wells on the 96-well plate, and stirred, and 100 μL of the cell sample preparation was then added thereto (at a concentration of 3×10^5 cells/well) to initiate the reaction.
The cells were incubated at room temperature for 60 minutes, and then filtered on UniFilter GF/C plate (manufactured by Packard) immersed in 0.5% polyethyleneimine using a cell harvester (IH-110, manufactured by INNOTECH CORPORATION), to stop the reaction, and the plate was washed with the buffer. The plate after washing was sufficiently dried, and 20 μL of a scintillator (MaxiLight, manufactured by Hidex) was added thereto, and count per minute (cpm) was measured with a multi-labeled microplate reader (Plate Chameleo II, manufactured by Hidex). The nonspecific binding was cpm in a case where 30 μmol/L pyrilamine was added. The experiments were carried out at n=3, and at least repeated 3 times.

human histamine H1 receptor, sequence (P35367 whole entry): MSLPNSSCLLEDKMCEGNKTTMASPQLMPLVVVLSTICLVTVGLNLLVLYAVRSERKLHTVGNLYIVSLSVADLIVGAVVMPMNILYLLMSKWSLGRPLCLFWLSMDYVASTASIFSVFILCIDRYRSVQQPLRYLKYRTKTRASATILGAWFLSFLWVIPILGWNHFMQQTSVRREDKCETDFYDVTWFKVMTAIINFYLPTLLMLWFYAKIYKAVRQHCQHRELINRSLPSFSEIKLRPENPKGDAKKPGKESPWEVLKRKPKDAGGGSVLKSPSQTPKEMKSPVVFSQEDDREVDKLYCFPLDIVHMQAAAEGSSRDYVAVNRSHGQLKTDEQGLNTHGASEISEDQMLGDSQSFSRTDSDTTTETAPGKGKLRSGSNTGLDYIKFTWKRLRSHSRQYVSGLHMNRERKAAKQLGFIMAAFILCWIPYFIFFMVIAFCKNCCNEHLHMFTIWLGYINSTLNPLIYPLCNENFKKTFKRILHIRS

| Compound | IC50 [2] [µM] | ED50 [1] [mg/kg] |
| --- | --- | --- |
| CN1CCC(=C2c3ccccc3CC(=O)c3sccc32)CC1 [Ketotifen, reference compound] | – | 0.54 |
| C=CCNC(=O)c1cc2c(s1)CCc1ccccc1C2=C1CCN(C)CC1 [Compound 86, N-Allyl-{[4-(1-methylpiperidin-4-ylidene)-9,10-dihydro-4H-1-thiabenzo[f]azulen-2-yl]}carboxamide] | 0.0212 | – |
| CCOC(=O)Cc1ccc2c(c1)C(=C1CCN(C)CC1)c1ccsc1CC2 [Compound 106, Ethyl[4-(1-methylpiperidin-4-ylidene)-9,10-dihydro-4H-1-thiabenzo[f]azulen-6-yl]acetate hydrochloride] | 0.00704 | – |
| CN1CCC(=C2c3ccccc3CCc3sc(C(=O)N(C)O)cc32)CC1 [Compound 74, N-Hydroxy-N-methyl-{[4-(1-methylpiperidin-4-ylidene)-9,10-dihydro-4H-1-thiabenzo[f]azulen-2-yl]}carboxamide] | 0.0709 | – |
| CCOC(=O)C=Cc1cc2c(s1)C(=O)Cc1ccccc1C2=C1CCN(C)CC1 [Compound 47, Ethyl 3-[4-(1-methylpiperidin-4-ylidene)-10-oxo-9,10-dihydro-4H-1-thiabenzo[f]azulen-2-yl]acrylate] | 0.0293 | – |
| CN1CCC(=C2c3ccccc3CCc3sc(C(N)=O)cc32)CC1 [Compound 31, [4-(1-Methylpiperidin-4-ylidene)-9,10-dihydro-4H-1-thiabenzo[f]azulen-2-yl]carboxamide] | 0.0164 | – |
| CN1CCC(=C2c3ccccc3CCc3sc(C(=O)NCCF)cc32)CC1 [Compound 77, N-(2-Fluoroethyl)-{[4-(1-methylpiperidin-4-ylidene)-9,10-dihydro-4H-1-thiabenzo[f]azulen-2-yl]}carboxamide] | 0.0378 | – |
| CC(C(=O)NCCO)c1ccc2c(c1)C(=C1CCN(C)CC1)c1sccc1CO2 (stereo not shown) [Compound 64, N-(2-Hydroxyethyl)-{2-[4-(1-methylpiperidin-4-ylidene)-4,10-dihydro-9-oxa-3-thiabenzo[f]azulen-6-yl]}propionamide] | 0.0486 | – |
| CCOC(=O)c1cc2c(s1)CCc1ccccc1C2=C1CCN(CCO)CC1 [Compound 105, Ethyl {4-[1-(2-hydroxyethyl)piperidin-4-ylidene]-9,10-dihydro-4H-1-thiabenzo[f]azulen-2-yl}carboxylate] | 0.0502 | – |
| CCOC(=O)COCCN1CCC(=C2c3ccccc3CCc3sc(C(=O)OCC)cc32)CC1 [Compound 110, Ethyl {4-[1-(2-ethoxycarbonylmethoxyethyl)piperidin-4-ylidene]-9,10-dihydro-4H-1-thiabenzo[f]azulen-2-yl}carboxylate hydrochloride] | 0.0234 | – |
| CCOC(=O)c1cc2c(s1)C(=O)Cc1ccccc1C2=C1CCN(C)CC1 [Compound 50, Ethyl[4-(1-methylpiperidin-4-ylidene)-10-oxo-9,10-dihydro-4H-1-thiabenzo[f]azulen-2-yl]carboxylate] | 0.0169 | – |
| CC(=O)NCc1cc2c(s1)CCc1ccccc1C2=C1CCN(C)CC1 [Compound 20, 2-Acetylaminomethyl-4-(1-methylpiperidin-4-ylidene)-9,10-dihydro-4H-1-thiabenzo[f]azulene hydrochloride] | 0.0152 | – |
| CN1CCC(=C2c3ccccc3CCc3sc(CC(=O)NCCO)cc32)CC1 [Compound 63, N-(2-Hydroxyethyl)-{[4-(1-methylpiperidin-4-ylidene)-9,10-dihydro-4H-1-thiabenzo[f]azulen-2-yl]}acetamide] | 0.042 | – |

Continued, in another order:

| IC50 [2] [µM] | Compound | ED50 [1] [mg/kg] |
| --- | --- | --- |
| 0.0908 | COC(=O)Cc1ccc2c(c1)C(=C1CCN(CCCN3CCCCC3)CC1)c1sccc1CO2 [Compound 163, Methyl {4-[1-(3-piperidin-1-yl-propyl)piperidin-4-ylidene]-4,10-dihydro-9-oxa-3-thiabenzo[f]azulen-6-yl}acetate dihydrochloride] | – |
| 0.0727 | CC(OC(=O)OC1CCCCC1)OC(=O)c1cc2c(s1)CCc1ccccc1C2=C1CCN(C)CC1 (stereo not shown) [Compound 176, 1-Cyclohexyloxycarbonyloxyethyl 4-(1-methylpiperidin-4-ylidene)-9,10-dihydro-4H-1-thiabenzo[f]azulene-2-carboxylate hydrochloride] | – |
| 0.00558 | CCOC(=O)c1ccc2c(c1)C(=C1CCN(CC)CC1)c1sccc1CC2 [Compound 160, Ethyl 4-(1-ethylpiperidin-4-ylidene)-9,10-dihydro-4H-3-thiabenzo[f]azulene-6-carboxylate] | – |
| 0.0947 | CN1CCC(=C2c3cc(C(=O)O)ccc3CCc3ccsc32)CC1 [Compound 121, 4-(1-Methylpiperidin-4-ylidene)-9,10-dihydro-4H-3-thiabenzo[f]azulene-6-carboxylic acid] | – |
| 0.0134 | OCCc1ccc2c(c1)C(=C1CCN(CCO)CC1)c1sccc1CO2 [Compound 122, 2-{4-[1-(2-Hydroxyethyl)piperidin-4-ylidene]-4,10-dihydro-9-oxa-3-thiabenzo[f]azulen-6-yl}ethanol] | – |
| 0.00312 | COC(=O)CCCc1ccc2c(c1)C(=C1CCN(C)CC1)c1sccc1CO2 [Compound 123, Methyl 4-[4-(1-methylpiperidin-4-ylidene)-4,10-dihydro-9-oxa-3-thiabenzo[f]azulen-6-yl]butyrate hydrochloride] | – |
| 0.0905 | CN1CCC(=C2c3cc(CCCCC(=O)O)ccc3OCc3ccsc32)CC1 [Compound 157, 5-[4-(1-Methylpiperidin-4-ylidene)-4,10-dihydro-9-oxa-3-thiabenzo[f]azulen-6-yl]valeric acid] | – |
| 0.017 | CCCN1CCC(=C2c3ccccc3CCc3sc(C(=O)OCC)cc32)CC1 [Compound 133, Ethyl 4-(1-propylpiperidin-4-ylidene)-9,10-dihydro-4H-1-thiabenzo[f]azulene-2-carboxylate hydrochloride] | – |
| 0.00395 | COC(=O)Cc1ccc2c(c1)C(=C1CCN(C)CC1)c1ccsc1CO2 [Compound 116, Methyl[4-(1-methylpiperidin-4-ylidene)-4,10-dihydro-9-oxa-1-thiabenzo[f]azulen-6-yl]acetate hydrochloride] | – |
